Results taken from patent US11185531B2, “Arginine methyltransferase inhibitors and uses thereof” (Epizyme, Inc., priority 2013, dated 2021).

What was measured:
human PRMT6 = target: T1, human PRMT6 (Homo sapiens, UniProt Q96LA8); assay: PRMT6 Biochemical Assay (3H-SAM Flashplate, peptide substrate); settings: 30 min preincubation
T1 construct: Flag-PRMT6-His was eluted with 200 ug/ml FLAG peptide in the same buffer; made in house; host or cells: HEK 293F cells (BacMam baculovirus, pFastBacMam)
Source text: Peptide representative of human histone H4 residues 36-50 was synthesized with an N-terminal linker-affinity tag motif and a C-terminal amide cap by 21st Century Biochemicals. The peptide was purified by high-performance liquid chromatography (HPLC) to greater than 95% purity and confirmed by liquid chromatography mass spectrometry (LC-MS). The sequence was Biot-Ahx-[…]-amide and contained a monomethylated lysine at position 44 (SEQ ID NO:5).
Full-length human PRMT6 (NM_018137.2) transcript clone was amplified from an HEK 293 cDNA library, incorporating a flanking 5′ sequence encoding a FLAG tag ([…]) (SEQ ID NO:6) fused directly to Ser 2 of PRMT6 and a 3′ sequence encoding a hexa His sequence (HHHHHH) fused directly to Asp 375. The amplified gene was subcloned into pFastBacMam (Viva Biotech).
Column was washed with 20 mM imidazole in the same buffer and Flag-PRMT6-His was eluted with 150 mM imidazole. Pooled fractions were dialysed against buffer Ni-A and further purified by anti-flag M2 affinity chromatography. Flag-PRMT6-His was eluted with 200 ug/ml FLAG peptide in the same buffer. Pooled fractions were dialysed in 20 mM Tris, 150 mM NaCl, 10% glycerol and 5 mM 3-mercaptoethanol, pH 7.8. The purity of recovered protein was 95%.
General Procedure for PRMT6 Enzyme Assays on Peptide Substrates.
The assays were all performed in a buffer consisting of 20 mM Bicine (pH=7.6), 1 mM TCEP, 0.005% BSG, and 0.002% Tween 20, prepared on the day of use. Compounds in 100% DMSO (1 ul) were spotted into a polypropylene 384-well V-bottom plates (Greiner) using a Platemate Plus outfitted with a 384-channel head (Thermo Scientific). DMSO (1 ul) was added to Columns 11, 12, 23, 24, rows A-H for the maximum signal control and 1 ul of SAH, a known product and inhibitor of PRMT6, was added to columns 11, 12, 23, 24, rows I-P for the minimum signal control. A cocktail (40 ul) containing the PRMT6 enzyme was added by Multidrop Combi (Thermo-Fisher). The compounds were allowed to incubate with PRMT6 for 30 min at room temperature, then a cocktail (10 ul) containing SAM and peptide was added to initiate the reaction (final volume=51 ul). The final concentrations of the components were as follows: PRMT6 was 1 nM, ^3H-SAM was 200 nM, non-radiolabeled SAM was 250 nM, peptide was 75 nM, SAH in the minimum signal control wells was 1 mM, and the DMSO concentration was 2%. The assays were stopped by the addition of non-radiolabeled SAM (10 ul) to a final concentration of 400 uM, which dilutes the ^3H-SAM to a level where its incorporation into the peptide substrate is no longer detectable. 50 ul of the reaction in the 384-well polypropylene plate was then transferred to a 384-well Flashplate and the biotinylated peptides were allowed to bind to the streptavidin surface for at least 1 hour before being washed once with 0.1% Tween20 in a Biotek ELx405 plate washer. The plates were then read in a PerkinElmer TopCount plate reader to measure the quantity of ^3H-labeled peptide bound to the Flashplate surface, measured as disintegrations per minute (dpm) or alternatively, referred to as counts per minute (cpm).
(§1) Where dpm=disintegrations per minute, cmpd=signal in assay well, and min and max are the respective minimum and maximum signal controls.
(§2) Where top and bottom are the normally allowed to float, but may be fixed at 100 or 0 respectively in a 3-parameter fit. The Hill Coefficient normally allowed to float but may also be fixed at 1 in a 3-parameter fit. Y is the % inhibition and X is the compound concentration.

human PRMT8 = target: T2, human PRMT8 (Homo sapiens, UniProt Q9NR22); assay: PRMT8 Biochemical Assay (3H-SAM Flashplate, peptide substrate); settings: 30 min preincubation
T2 construct: Full-length human PRMT8 (NM_019854.4) isoform 1 transcript clone; GST (N, cleaved yes); made in house; host or cells: E. coli BL21(DE3) Gold
Source text: Peptide representative of human histone H4 residues 31-45 was synthesized with an N-terminal linker-affinity tag motif and a C-terminal amide cap by 21st Century Biochemicals. The peptide was purified by high-performance liquid chromatography (HPLC) to greater than 95% purity and confirmed by liquid chromatography mass spectrometry (LC-MS). The sequence was Biot-Ahx-[…]-amide (SEQ ID NO:8).
The resulting construct encodes an N-terminal GST tag and a thrombin cleavage sequence
GST-tagged PRMT8 was eluted with 50 mM Tris, 2 mM glutathione, pH 7.8. Pooled fractions were cleaved by thrombin (10 U) and dialysed in buffer A. GST was removed by reloading the cleaved protein sample onto glutathione sepharose column and PRMT8 was collected in the flow-through fractions. PRMT8 was purified further by ceramic hydroxyapatite chromatography. The column was washed with 50 mM phosphate buffer, 100 mM NaCl, 5% glycerol, 5 mM 3-mercaptoethanol, pH 7.8 and PRMT8 was eluted by 100 mM phosphate in the same buffer. Protein was concentrated and buffer was exchanged to 50 mM Tris, 300 mM NaCl, 10% glycerol, 5 mM β-mercaptoethanol, pH 7.8 by ultrafiltration. The purity of recovered protein was 89%.
General Procedure for PRMT8 Enzyme Assays on Peptide Substrates.
The assays were all performed in a buffer consisting of 20 mM Bicine (pH=7.6), 1 mM TCEP, 0.005% BSG, and 0.002% Tween 20, prepared on the day of use. Compounds in 100% DMSO (1 ul) were spotted into a polypropylene 384-well V-bottom plates (Greiner) using a Platemate Plus outfitted with a 384-channel head (Thermo Scientific). DMSO (1 ul) was added to Columns 11, 12, 23, 24, rows A-H for the maximum signal control and 1 ul of SAH, a known product and inhibitor of PRMT8, was added to columns 11, 12, 23, 24, rows I-P for the minimum signal control. A cocktail (40 ul) containing the PRMT8 enzyme was added by Multidrop Combi (Thermo-Fisher). The compounds were allowed to incubate with PRMT8 for 30 min at room temperature, then a cocktail (10 ul) containing ^3H-SAM and peptide was added to initiate the reaction (final volume=51 ul). The final concentrations of the components were as follows: PRMT8 was 1.5 nM, ^3H-SAM was 50 nM, non-radiolabeled SAM was 550 nM, peptide was 150 nM, SAH in the minimum signal control wells was 1 mM, and the DMSO concentration was 2%. The assays were stopped by the addition of non-radiolabeled SAM (10 ul) to a final concentration of 400 uM, which dilutes the ^3H-SAM to a level where its incorporation into the peptide substrate is no longer detectable. 50 ul of the reaction in the 384-well polypropylene plate was then transferred to a 384-well Flashplate and the biotinylated peptides were allowed to bind to the streptavidin surface for at least 1 hour before being washed once with 0.1% Tween20 in a Biotek ELx405 plate washer. The plates were then read in a PerkinElmer TopCount plate reader to measure the quantity of ^3H-labeled peptide bound to the Flashplate surface, measured as disintegrations per minute (dpm) or alternatively, referred to as counts per minute (cpm).
as §1, §2

T2 sequence (Q9NR22 whole entry, canonical isoform): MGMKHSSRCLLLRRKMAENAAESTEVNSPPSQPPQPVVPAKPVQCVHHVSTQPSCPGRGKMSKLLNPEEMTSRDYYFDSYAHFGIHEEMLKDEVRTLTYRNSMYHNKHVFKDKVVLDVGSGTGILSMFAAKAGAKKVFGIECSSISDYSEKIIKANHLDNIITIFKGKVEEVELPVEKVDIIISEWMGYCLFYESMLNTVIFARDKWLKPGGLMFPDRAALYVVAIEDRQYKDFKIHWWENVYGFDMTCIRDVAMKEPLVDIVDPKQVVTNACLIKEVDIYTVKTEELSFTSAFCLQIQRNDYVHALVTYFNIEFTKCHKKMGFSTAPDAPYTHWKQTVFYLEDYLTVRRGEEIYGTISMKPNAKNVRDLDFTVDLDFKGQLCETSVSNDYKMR
T1 sequence (Q96LA8 with tags, fused parts or gaps): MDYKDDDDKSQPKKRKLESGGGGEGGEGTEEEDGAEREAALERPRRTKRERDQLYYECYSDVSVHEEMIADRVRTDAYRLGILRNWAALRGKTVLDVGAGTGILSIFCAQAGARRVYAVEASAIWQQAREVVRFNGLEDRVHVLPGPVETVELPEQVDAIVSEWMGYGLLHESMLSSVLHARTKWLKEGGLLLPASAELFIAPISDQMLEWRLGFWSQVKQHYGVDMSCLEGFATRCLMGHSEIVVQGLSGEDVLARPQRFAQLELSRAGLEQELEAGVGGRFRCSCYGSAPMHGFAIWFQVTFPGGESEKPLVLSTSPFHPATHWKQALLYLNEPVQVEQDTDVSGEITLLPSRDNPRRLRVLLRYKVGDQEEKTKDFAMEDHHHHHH

Structure (SMILES)	IC50 (human PRMT6) [nM]	IC50 (human PRMT8) [nM]
CNCCN(C)Cc1c[nH]nc1C1CCN(C(=O)Cc2ccccc2)CC1 [Compound 32]	< 100	1010 to 3000
CC(C)Cc1n[nH]cc1CN(C)CCN [Compound 28, N^1-((3-iso-butyl-1H-pyrazol-4-yl)methyl)-N^1-methylethane-1,2-diamine]	< 100	1010 to 3000
COc1cc(/C=C/c2n[nH]cc2CN(C)CCN)cc(OC)c1 [Compound 11]	< 100	101 to 1000
CN(CCN)Cc1c[nH]nc1/C=C/c1cccc(F)c1 [Compound 20]	< 100	101 to 1000
CN(CCN)Cc1n[nH]cc1C1CCCCC1 [Compound 33]	< 100	101 to 1000
CN(CCN)Cc1n[nH]cc1C1CCC(N2CCOCC2)CC1 (centres unmarked) [Compound 44, N^1-methyl-N^1-((4-(4-morpholinocyclohexyl)-1H-pyrazol-3-yl)methyl)ethane-1,2-diamine]	101 to 1000	–
CN(CCN)Cc1c[nH]nc1/C=C/c1cc(C(F)(F)F)cc(C(F)(F)F)c1 [Compound 14]	101 to 1000	101 to 1000
CC(C)c1n[nH]cc1CN(C)CCN [Compound 21]	101 to 1000	3010 to 10000
Cc1n[nH]cc1CN(C)CCN [Compound 30]	101 to 1000	3010 to 10000
CNCCN(C)Cc1c[nH]nc1C#Cc1ccc(F)cc1 [Compound 4]	< 100	101 to 1000
CNCCN(C)Cc1c[nH]nc1C1CCN(C(=O)C(C)C)CC1 [Compound 34]	< 100	101 to 1000
CN(CCN)Cc1c[nH]nc1/C=C/c1cccc(C(F)(F)F)c1 [Compound 16]	101 to 1000	101 to 1000
CNCCN(C)Cc1c[nH]nc1C1CCN(C)CC1 [Compound 41]	< 100	3010 to 10000
CC1CCC(c2c[nH]nc2CN(C)CCN)CC1 (centres unmarked) [Compound 35]	< 100	101 to 1000
CN(CCN)Cc1c[nH]nc1/C=C/Cc1ccccc1 [Compound 24]	101 to 1000	101 to 1000
CN(CCN)Cc1n[nH]cc1C1CCC(C)(C)CC1 [Compound 36]	< 100	101 to 1000
CN(CCN)Cc1c[nH]nc1C1CCC(C)(C)CC1 [Compound 38, N^1-((3-(4,4-dimethylcyclohexyl)-1H-pyrazol-4-yl)methyl)-N^1-methylethane-1,2-diamine]	< 100	101 to 1000
CNCCN(C)Cc1c[nH]nc1C#Cc1cccc(OC)c1 [Compound 1]	< 100	101 to 1000
COc1cccc(/C=C/c2n[nH]cc2CN(C)CCN)c1 [Compound 17]	< 100	101 to 1000
Cc1ccc(/C=C/c2n[nH]cc2CN(C)CCN)cc1 [Compound 8]	< 100	101 to 1000

Structure (SMILES)	IC50 (human PRMT6) [nM]	IC50 (human PRMT8) [nM]
CNCCN(C)Cc1c[nH]nc1/C=C/c1ccc(-c2ccccc2)cc1 [Compound 5]	< 100	101 to 1000
CN(CCN)Cc1c[nH]nc1C1CCCC1 [Compound 31]	3010 to 10000	> 10000
CN(CCN)Cc1c[nH]nc1C1CCCCC1 [Compound 22]	< 100	101 to 1000
CNCCN(C)Cc1c[nH]nc1C#Cc1ccccc1 [Compound 3]	< 100	101 to 1000
CCCc1n[nH]cc1CN(C)CCN [Compound 29]	101 to 1000	1010 to 3000
CN(CCN)Cc1c[nH]nc1C1CCC1 [Compound 26]	101 to 1000	3010 to 10000
CN(CCN)Cc1c[nH]nc1/C=C/c1ccc(F)cc1F [Compound 13]	< 100	101 to 1000
CN(CCN)Cc1c[nH]nc1/C=C/c1cc(F)cc(F)c1 [Compound 15]	< 100	101 to 1000
COC/C=C/c1n[nH]cc1CN(C)CCN [Compound 19]	101 to 1000	1010 to 3000
CN(CCN)Cc1c[nH]nc1/C=C/c1ccc(C(F)(F)F)cc1 [Compound 18]	< 100	< 100
CN(CCN)Cc1c[nH]nc1C1=CCOCC1 [Compound 10]	101 to 1000	1010 to 3000
CN(CCN)Cc1c[nH]nc1C1=CCCC1 [Compound 25]	101 to 1000	1010 to 3000
CNCCN(C)Cc1c[nH]nc1C1CCNCC1 [Compound 42]	< 100	101 to 1000
CNCCN(C)Cc1c[nH]nc1/C=C/c1ccc(C(F)(F)F)cc1 [Compound 6]	< 100	101 to 1000
CNCCN(C)Cc1c[nH]nc1/C=C/c1ccc(OC)cc1 [Compound 7]	< 100	101 to 1000
CC1CCC(c2n[nH]cc2CN(C)CCN)CC1 (centres unmarked) [Compound 37, N^1-methyl-N^1-((3-(4-methylcyclohexyl)-1H-pyrazol-4-yl)methyl)ethane-1,2-diamine]	< 100	101 to 1000
CNCCN(C)Cc1c[nH]nc1C1CCN(CC(C)C)CC1 [Compound 39, N^1-((3-(1-isobutylpiperidin-4-yl)-1H-pyrazol-4-yl)methyl)-N^1,N^2-dimethylethane-1,2-diamine]	< 100	101 to 1000
CN(CCN)Cc1c[nH]nc1CCc1ccc(F)cc1 [Compound 23, N^1-((3-(4-fluorophenethyl)-1H-pyrazol-4-yl)methyl)-N^1-methylethane-1,2-diamine]	< 100	101 to 1000
CNCCN(C)Cc1c[nH]nc1C#Cc1ccc(C(C)(C)C)cc1 [Compound 2]	< 100	101 to 1000
